The source made the active and inactive calls.
Legend:
RAW264.7 [1] = experiment: Inhibition of LPS-induced NO production in mouse RAW264.7 cells at 1 uM pre-incubated for 1 hrs followed by LPS stimulation and measured after 24 hrs; format: functional, cell-based; conditions: time 25.0 hrs
Mus musculus [2] = experiment: Antiinflammatory activity in LPS-induced sepsis in C57BL/6J mouse model assessed as reduction in morphological changes in heart at 7 mg/kg,IG administrated for 72 hrs followed by LPS stimulation and measured after 12 hrs by H and E staining method; format: functional, organism-based; conditions: time 84.0 hrs
Mus musculus [3] = experiment: Antiinflammatory activity in LPS-induced sepsis in C57BL/6J mouse model assessed as reduction in serum creatinine level at 14 mg/kg,IG administrated for 72 hrs followed by LPS stimulation and measured after 12 hrs; format: functional, organism-based; conditions: time 84.0 hrs
Mus musculus [4] = experiment: Antiinflammatory activity in LPS-induced sepsis in C57BL/6J mouse model assessed as reduction in inflammatory cell infiltration in liver at 14 mg/kg,IG administrated for 72 hrs followed by LPS stimulation and measured after 12 hrs by H and E staining method; format: functional, organism-based; conditions: time 84.0 hrs
RAW264.7 [5] = experiment: Antiinflammatory activity in mouse RAW264.7 cells assessed as reduction in LPS-induced iNOS protein expression at 2.5 to 10 uM pre-incubated for 1 hrs followed by LPS stimulation and measured after 24 hrs by western blotting method; format: functional, cell-based; conditions: dose 2.5-10 µM, time 25.0 hrs
[6] = Toxicity in LPS-induced sepsis in C57BL/6J mouse model assessed as decrease in ratio of spleen weight to body weight at 14 mg/kg,IG administrated for 72 hrs followed by LPS stimulation and measured after 12 hrs; format: organism-based; conditions: in vivo, po, 84 h
Mus musculus [7] = experiment: Antiinflammatory activity in LPS-induced sepsis in C57BL/6J mouse model assessed as reduction in morphological changes in spleen at 14 mg/kg,IG administrated for 72 hrs followed by LPS stimulation and measured after 12 hrs by H and E staining method; format: functional, organism-based; conditions: time 84.0 hrs
Mus musculus [8] = experiment: Antiinflammatory activity in LPS-induced sepsis in C57BL/6J mouse model assessed as reduction in serum LDH level at 14 mg/kg,IG administrated for 72 hrs followed by LPS stimulation and measured after 12 hrs; format: functional, organism-based; conditions: time 84.0 hrs
Mus musculus [9] = experiment: Antiinflammatory activity in LPS-induced sepsis in C57BL/6J mouse model assessed as reduction in morphological changes in heart at 14 mg/kg,IG administrated for 72 hrs followed by LPS stimulation and measured after 12 hrs by H and E staining method; format: functional, organism-based; conditions: time 84.0 hrs
[10] = Toxicity in LPS-induced sepsis in C57BL/6J mouse model assessed as decrease in ratio of heart weight to body weight at 7 mg/kg,IG administrated for 72 hrs followed by LPS stimulation and measured after 12 hrs; format: organism-based; conditions: in vivo, po, 84 h
[11] = Toxicity in LPS-induced sepsis in C57BL/6J mouse model assessed as decrease in ratio of heart weight to body weight at 14 mg/kg,IG administrated for 72 hrs followed by LPS stimulation and measured after 12 hrs; format: organism-based; conditions: in vivo, po, 84 h
[12] = Toxicity in LPS-induced sepsis in C57BL/6J mouse model assessed as decrease in ratio of spleen weight to body weight at 7 mg/kg,IG administrated for 72 hrs followed by LPS stimulation and measured after 12 hrs; format: organism-based; conditions: in vivo, po, 84 h
RAW264.7 [13] = experiment: Antiinflammatory activity in mouse RAW264.7 cells assessed as reduction in LPS-induced JNK phosphorylation at 2.5 to 10 uM pre-incubated for 1 hrs followed by LPS stimulation and measured after 24 hrs by western blotting method; format: functional, cell-based; conditions: dose 2.5-10 µM, time 25.0 hrs, DDE = dose-dependent effect
Mus musculus [14] = experiment: Antiinflammatory activity in LPS-induced sepsis in C57BL/6J mouse model assessed as reduction in serum Urea nitrogen level at 7 mg/kg,IG administrated for 72 hrs followed by LPS stimulation and measured after 12 hrs; format: functional, organism-based; conditions: time 84.0 hrs
RAW264.7 [15] = experiment: Antiinflammatory activity in mouse RAW264.7 cells assessed as inhibition of LPS-induced NO production at 2.5 to 10 uM pre-incubated for 1 hrs followed by LPS stimulation and measured after 24 hrs; format: functional, cell-based; conditions: dose 2.5-10 µM, time 25.0 hrs, DDE = dose-dependent effect
Mus musculus [16] = experiment: Antiinflammatory activity in LPS-induced sepsis in C57BL/6J mouse model assessed as reduction in serum Urea nitrogen level at 14 mg/kg,IG administrated for 72 hrs followed by LPS stimulation and measured after 12 hrs; format: functional, organism-based; conditions: time 84.0 hrs
Mus musculus [17] = experiment: Antiinflammatory activity in LPS-induced sepsis in C57BL/6J mouse model assessed as reduction in serum creatinine level at 7 mg/kg,IG administrated for 72 hrs followed by LPS stimulation and measured after 12 hrs; format: functional, organism-based; conditions: time 84.0 hrs
RAW264.7 [18] = experiment: Antiinflammatory activity in mouse RAW264.7 cells assessed as reduction in LPS-induced TNF-alpha mRNA expression at 2.5 to 10 uM pre-incubated for 1 hrs followed by LPS stimulation and measured after 24 hrs by qRT-PCR assay; format: functional, cell-based; conditions: dose 2.5-10 µM, time 25.0 hrs, DDE = dose-dependent effect
[19] = Toxicity in LPS-induced sepsis in C57BL/6J mouse model assessed as decrease in ratio of kidney weight to body weight at 7 mg/kg,IG administrated for 72 hrs followed by LPS stimulation and measured after 12 hrs; format: organism-based; conditions: in vivo, po, 84 h
Mus musculus [20] = experiment: Antiinflammatory activity in LPS-induced sepsis in C57BL/6J mouse model assessed as reduction in serum AST level at 14 mg/kg,IG administrated for 72 hrs followed by LPS stimulation and measured after 12 hrs; format: functional, organism-based; conditions: time 84.0 hrs
RAW264.7 [21] = experiment: Antiinflammatory activity in mouse RAW264.7 cells assessed as reduction in LPS-induced ERK phosphorylation at 2.5 to 10 uM pre-incubated for 1 hrs followed by LPS stimulation and measured after 24 hrs by western blotting method; format: functional, cell-based; conditions: dose 2.5-10 µM, time 25.0 hrs, DDE = dose-dependent effect
Mus musculus [22] = experiment: Antiinflammatory activity in LPS-induced sepsis in C57BL/6J mouse model assessed as reduction in morphological changes in kidney at 14 mg/kg,IG administrated for 72 hrs followed by LPS stimulation and measured after 12 hrs by H and E staining method; format: functional, organism-based; conditions: time 84.0 hrs
RAW264.7 [23] = experiment: Antiinflammatory activity in mouse RAW264.7 cells assessed as reduction in LPS-induced COX-2 protein expression at 2.5 to 10 uM pre-incubated for 1 hrs followed by LPS stimulation and measured after 24 hrs by western blotting method; format: functional, cell-based; conditions: dose 2.5-10 µM, time 25.0 hrs
RAW264.7 [24] = experiment: Antiinflammatory activity in mouse RAW264.7 cells assessed as reduction in LPS-induced p38 phosphorylation at 2.5 to 10 uM pre-incubated for 1 hrs followed by LPS stimulation and measured after 24 hrs by western blotting method; format: functional, cell-based; conditions: dose 2.5-10 µM, time 25.0 hrs, DDE = dose-dependent effect
Mus musculus [25] = experiment: Antiinflammatory activity in LPS-induced sepsis in C57BL/6J mouse model assessed as reduction in serum HBDH level at 7 mg/kg,IG administrated for 72 hrs followed by LPS stimulation and measured after 12 hrs; format: functional, organism-based; conditions: time 84.0 hrs
RAW264.7 [26] = experiment: Antiinflammatory activity in mouse RAW264.7 cells assessed as reduction in LPS-induced NF-kappaB phosphorylation at 2.5 to 10 uM pre-incubated for 1 hrs followed by LPS stimulation and measured after 24 hrs by immunofluorescence staining assay; format: functional, cell-based; conditions: dose 2.5-10 µM, time 25.0 hrs
Mus musculus [27] = experiment: Antiinflammatory activity in LPS-induced sepsis in C57BL/6J mouse model assessed as reduction in serum HBDH level at 14 mg/kg,IG administrated for 72 hrs followed by LPS stimulation and measured after 12 hrs; format: functional, organism-based; conditions: time 84.0 hrs
RAW264.7 [28] = experiment: Inhibition of LPS-induced NO production in mouse RAW264.7 cells at 10 uM pre-incubated for 1 hrs followed by LPS stimulation and measured after 24 hrs; format: functional, cell-based; conditions: time 25.0 hrs
[29] = Toxicity in LPS-induced sepsis in C57BL/6J mouse model assessed as decrease in ratio of kidney weight to body weight at 14 mg/kg,IG administrated for 72 hrs followed by LPS stimulation and measured after 12 hrs; format: organism-based; conditions: in vivo, po, 84 h
RAW264.7 [30] = experiment: Antiinflammatory activity in mouse RAW264.7 cells assessed as reduction in LPS-induced IL-1beta mRNA expression at 2.5 to 10 uM pre-incubated for 1 hrs followed by LPS stimulation and measured after 24 hrs by qRT-PCR assay; format: functional, cell-based; conditions: dose 2.5-10 µM, time 25.0 hrs, DDE = dose-dependent effect
Mus musculus [31] = experiment: Antiinflammatory activity in LPS-induced sepsis in C57BL/6J mouse model assessed as reduction in serum LDH level at 7 mg/kg,IG administrated for 72 hrs followed by LPS stimulation and measured after 12 hrs; format: functional, organism-based; conditions: time 84.0 hrs
Mus musculus [32] = experiment: Antiinflammatory activity in LPS-induced sepsis in C57BL/6J mouse model assessed as reduction in morphological changes in spleen at 7 mg/kg,IG administrated for 72 hrs followed by LPS stimulation and measured after 12 hrs by H and E staining method; format: functional, organism-based; conditions: time 84.0 hrs
Mus musculus [33] = experiment: Antiinflammatory activity in LPS-induced sepsis in C57BL/6J mouse model assessed as reduction in morphological changes in kidney at 7 mg/kg,IG administrated for 72 hrs followed by LPS stimulation and measured after 12 hrs by H and E staining method; format: functional, organism-based; conditions: time 84.0 hrs
Mus musculus [34] = experiment: Antiinflammatory activity in LPS-induced sepsis in C57BL/6J mouse model assessed as reduction in inflammatory cell infiltration in liver at 7 mg/kg,IG administrated for 72 hrs followed by LPS stimulation and measured after 12 hrs by H and E staining method; format: functional, organism-based; conditions: time 84.0 hrs
Mus musculus [35] = experiment: Antiinflammatory activity in LPS-induced sepsis in C57BL/6J mouse model assessed as reduction in serum AST level at 7 mg/kg,IG administrated for 72 hrs followed by LPS stimulation and measured after 12 hrs; format: functional, organism-based; conditions: time 84.0 hrs

Cc1csc(N2N=C(c3ccccc3Br)CC2c2ccc(Br)cc2)n1 (centres undefined)
active: inhibition (RAW264.7 [1])

Cc1csc(N2N=C(c3ccc(F)cc3)CC2c2ccc(Br)cc2)n1 (centres undefined)
active: inhibition (RAW264.7 [1])

COc1ccc(C2=NN(c3nc(C)cs3)C(c3ccc(C)cc3)C2)cc1 (centres undefined)
active: inhibition (RAW264.7 [1])

COc1ccccc1C1=NN(c2nc(C)cs2)C(c2cc(OC)c(OC)c(OC)c2)C1 (centres undefined)
active: inhibition (RAW264.7 [1])

COc1ccc(C2=NN(c3nc(C)cs3)C(c3ccc(Br)cc3)C2)cc1 (centres undefined)
active: inhibition (RAW264.7 [1])

COc1ccc(C2=NN(c3nc(C)cs3)C(c3cc(OC)c(OC)c(OC)c3)C2)cc1 (centres undefined)
active: inhibition (RAW264.7 [1])

COc1ccccc1C1=NN(c2nc(C)cs2)C(c2ccccc2C)C1 (centres undefined)
active: Activity (Mus musculus [2]) | Activity (Mus musculus [3]) | Activity (Mus musculus [4]) | Activity (RAW264.7 [5]) | Activity (Mus musculus [7]) | Activity (Mus musculus [8]) | Activity (Mus musculus [9]) | Activity (RAW264.7 [13]) Dde | Activity (Mus musculus [14]) | Activity (RAW264.7 [15]) Dde | Activity (Mus musculus [16]) | Activity (Mus musculus [17]) | Activity (RAW264.7 [18]) Dde | Activity (Mus musculus [20]) | Activity (RAW264.7 [21]) Dde | Activity (Mus musculus [22]) | Activity (RAW264.7 [23]) | Activity (RAW264.7 [24]) Dde | inhibition (RAW264.7 [1]) | Activity (Mus musculus [25]) | Activity (RAW264.7 [26]) | Activity (Mus musculus [27]) | inhibition (RAW264.7 [28]) | Activity (RAW264.7 [30]) Dde | Activity (Mus musculus [31]) | Activity (Mus musculus [32]) | Activity (Mus musculus [33]) | Activity (Mus musculus [34]) | Activity (Mus musculus [35])
Non-Toxic: Activity [6] | Activity [10] | Activity [11] | Activity [12] | Activity [19] | Activity [29]

COc1ccccc1C1=NN(c2nc(C)cs2)C(c2ccc(C)cc2)C1 (centres undefined)
active: inhibition (RAW264.7 [1])

Cc1ccc(C2CC(c3ccccc3Br)=NN2c2nc(C)cs2)cc1 (centres undefined)
active: inhibition (RAW264.7 [1])

COc1ccccc1C1=NN(c2nc(C)cs2)C(c2ccc(Br)cc2)C1 (centres undefined)
active: inhibition (RAW264.7 [1])

From ChEMBL document CHEMBL5214912, “Design, synthesis, and SAR study of novel 4,5-dihydropyrazole-Thiazole derivatives with anti-inflammatory activities for the treatment of sepsis” (Eur J Med Chem, 2021)
